Experimental findings from PMC12480555 (Scientific Reports, 2025) are described below.

A short description of data set [1]: Blood parameters in colon cancer model.
Data set [2] concerns CT26-induced tumors. Kind of data set: Colon cancer model, tumor weight and size after 21 days. To be noted: intravenous every three days.
Data set [3] is described as follows: Kidney histology in colon cancer model. To be noted: kidney tissue, day 21.
A further data set can be described thus: MTT cytotoxicity assay. Format: cell-based. The settings on record: human, HFF cells. (In general: Formazan colour is commonly taken as a measure of viable cells.)
The test system of data set [4] is CT26-induced tumors. Kind of data set: Tumor histology. To be noted: tumor tissue, day 21.

As to `O=c1[nH]cc(F)c(=O)[nH]1` [Free 5FU, 5-Fluorouracil], in data set [1] (Day 21), the “Red Blood Cell Count ± SD” value is 4.2 ± 0.3 ×10⁶ cells/µL and the “White Blood Cell Count ± SD” value is recorded as 10.0 ± 1.5 ×10³ cells/µL. In data set [1] (Day 21, listed as 5-FU), the “Hemoglobin Level ± SD” value is recorded as 9.0 ± 0.8 g/dL. In data set [1] (Day 21, listed as free 5-FU), the “Hemoglobin Level ± SD” value is reported as 9.0 g/dL. In addition, in data set [1] (Treatment start), the “Hemoglobin Level ± SD” value is 12.8 ± 1.2 g/dL, the “Red Blood Cell Count ± SD” value is recorded as 5.6 ± 0.5 ×10⁶ cells/µL and the “White Blood Cell Count ± SD” value is listed as 8.3 ± 1.1 ×10³ cells/µL. Moreover, in the data set with CT26-induced tumors [2], the “Mean tumor size ± standard deviation” value was 11.0 ± 2.0 mm and the “Mean tumor weight ± standard deviation” value was 0.98 ± 0.36 g. Further, the “renal complications (kidney histology)” value in data set [3] was “Most renal complications occurred in this group”. Besides, in “MTT cytotoxicity assay”, the viability (commonly a read-out of living cells in per cent, often relative to untreated cells) at 24 h, 0.2 mg/mL was found to be 99.5%; the viability at 24 h, 0.5 mg/mL is 87.9%; the viability at 24 h, 1 mg/mL amounted to 85.9%; the viability at 24 h, 1.5 mg/mL stood at 75.9%. Also, in the data set “MTT cytotoxicity assay”, the viability at 24 h, 2 mg/mL stood at 75.1%; the viability at 48 h, 0.2 mg/mL was determined as 104%; the viability at 48 h, 0.5 mg/mL was 94.1%; the viability at 48 h, 1 mg/mL was 79.4%. In the data set “MTT cytotoxicity assay”, the viability at 48 h, 1.5 mg/mL was found to be 74.7% and the viability at 48 h, 2 mg/mL came out at 65.1%. Further, in the data set with CT26-induced tumors [4], the “Number of Apoptotic Cells (per field of view) ± Standard Deviation” value is recorded as 8.0 ± 1.0 per field of view; the “Other Histopathology Changes” value was “Mild necrotic changes and inflammation”; the “Percentage of Necrosis ± Standard Deviation” value came to 18.0 ± 4.0%; the “Tumor Differentiation Grade (1 to 3) ± Standard Deviation” value was 2.0 ± 0.3.
